This note sets out measurements from patent US20230219969A1 (priority 2020, published 2023).

Molecules are shown by their SMILES.

As a reminder, the EC50 is the midpoint of the concentration-response curve. Read a low EC50 as higher potency in that assay. One may read the IC50 as the concentration that gives 50% inhibition.

In experiment [1] the target is T1, 5-HT2C edited (accession number AAF35842.1) (Homo sapiens, UniProt P28335, I156V/I160V/N158S). In words: cell-based.
Target sequence in this assay (P28335 33-458 I156V/N158S/I160V limits assumed): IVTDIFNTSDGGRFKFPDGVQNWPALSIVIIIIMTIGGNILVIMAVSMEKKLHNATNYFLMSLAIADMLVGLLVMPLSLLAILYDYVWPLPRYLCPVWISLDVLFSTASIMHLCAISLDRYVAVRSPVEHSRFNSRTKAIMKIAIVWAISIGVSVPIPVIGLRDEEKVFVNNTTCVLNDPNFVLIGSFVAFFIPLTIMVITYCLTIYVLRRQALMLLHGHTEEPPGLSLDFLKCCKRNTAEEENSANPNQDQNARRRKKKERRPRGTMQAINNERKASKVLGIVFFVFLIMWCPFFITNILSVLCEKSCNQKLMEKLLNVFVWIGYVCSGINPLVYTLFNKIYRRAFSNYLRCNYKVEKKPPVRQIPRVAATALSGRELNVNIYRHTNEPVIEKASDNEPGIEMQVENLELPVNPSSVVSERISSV
Experiment [2] addresses T1, 5-HT2C edited (accession number AAF35842.1). The experiment is described as follows: biochemical. The class given is binding.
Target sequence in this assay (P28335 whole entry I156V/N158S/I160V, looked up): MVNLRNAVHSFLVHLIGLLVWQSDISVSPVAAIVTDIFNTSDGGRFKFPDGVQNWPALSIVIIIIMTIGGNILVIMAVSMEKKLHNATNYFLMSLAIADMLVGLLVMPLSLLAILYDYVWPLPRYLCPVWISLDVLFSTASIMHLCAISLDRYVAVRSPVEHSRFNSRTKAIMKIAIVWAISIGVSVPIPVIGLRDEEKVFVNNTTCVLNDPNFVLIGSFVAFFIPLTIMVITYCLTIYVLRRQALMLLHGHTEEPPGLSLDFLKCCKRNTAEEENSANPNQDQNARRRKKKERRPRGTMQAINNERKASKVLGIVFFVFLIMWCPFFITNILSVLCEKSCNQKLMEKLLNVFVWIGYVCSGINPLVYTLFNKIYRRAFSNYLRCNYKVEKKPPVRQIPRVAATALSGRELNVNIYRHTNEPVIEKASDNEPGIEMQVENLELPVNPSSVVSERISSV

On to `COc1cc2ccn(C[C@@H](C)N(C)C)c2cn1` [Example 33, (R)-1-(5-methoxy-1H-pyrrolo[2,3-c]pyridin-1-yl)-N,N-dimethylpropan-2-amine], for which the EC50 in experiment [1] was greater than 10 µM. Besides, in experiment [2], the IC50 is greater than 10 µM.

For `COc1ccc2c(ccn2CC(C)(C)N)c1` [Example 42, 1-(5-methoxy-1H-indol-1-yl)-2-methylpropan-2-amine], in experiment [1], the EC50 lay within 1 to 10 µM. The same molecule displayed an IC50 in experiment [2] of 1 to 10 µM.

In experiment [1], `COc1ccc2c(c1)CN(CCN(C)C)C2` [Example 10, 2-(5-methoxyisoindolin-2-yl)-N,N-dimethylethan-1-amine] displayed an EC50 of 1 to 10 µM. Moreover, in experiment [2], the IC50 is 1 to 10 µM.

In experiment [1], `COc1cnc2c(ccn2C[C@@H](C)N)c1` [Example 34, (R)-1-(5-methoxy-1H-pyrrolo[2,3-b]pyridin-1-yl)propan-2-amine] displayed an EC50 of 1 to 10 µM. The molecule also came in with an IC50 in experiment [2] of 1 to 10 µM.

Regarding `CN(C)CC(=O)n1ccc2cc(F)ccc21` [Example 43, 2-(dimethylamino)-1-(5-fluoro-1H-indol-1-yl)ethan-1-one], the EC50 in experiment [1] was greater than 10 µM. This molecule also gave an IC50 in experiment [2] greater than 10 µM.

As to `COc1cc2ccn(CCN(C)C)c2cn1` [Example 4, 2-(5-methoxy-1H-pyrrolo[2,3-c]pyridin-1-yl)-N,N-dimethylethan-1-amine], the EC50 in experiment [1] was greater than 10 µM. This molecule showed an IC50 in experiment [2] of 0.101 to 1 µM.
